Source: patent publication US12624057B2, “Bisphosphonate quinolone conjugates and uses thereof” (BIOVINC, LLC, priority 2016, dated 2026)

Assays:
[1] = system: biofilms of S. aureus strain ATCC-6538; assay: Preformed biofilms on polystyrene, S. aureus; type: cell-based, Staphylococcus aureus
Procedure: Antimicrobial susceptibility testing of BP-ciprofloxacin against preformed biofilms of S. aureus strain ATCC-6538 and P. aeruginosa strain ATCC-15442: Strains cultured on appropriate agar plates (Columbia agar plate for S. aureus; MacConkey agar plate for P. aeruginosa) were transferred to liquid microbiological media and incubated for 24 h/37° C. under aerobic conditions. After incubation, strains were diluted to the density of 1 MF. The microbial dilutions were introduced to wells of 24-well plates containing HA discs as a substrate, or simply to polystyrene wells where the bottom surface of the wells served as the substrate for biofilm development. Strains were incubated at 37° C. for 4 hrs. Next, the microbe-containing solutions were removed from the wells. The surfaces, HA discs and polystyrene plates, were gently rinsed to leave adhered cells and to remove planktonic or loosely-bound microbes. Surfaces prepared in this manner were immersed in fresh TSB medium containing 0.24-125 mg/L of BP-ciprofloxacin conjugate. After 24 hrs of incubation at 37° C. the surfaces were rinsed using physiological saline solution and transferred to 1 mL of 0.5% saponin (Sigma-Aldrich, St Louis, MO). The surfaces were vortex-mixed vigorously for 1 minute to detach cells. Subsequently, all microbial suspensions were diluted 10 to 10^9 times. Each dilution ([…]) was cultured on the appropriate stable medium (MacConkey, Columbia for P. aeruginosa and S. aureus, respectively) and incubated at 37-C for 24 hours. After this time, the microbial colonies were counted and the number of cells forming biofilm was assessed. […]
Antimicrobial susceptibility testing of 6 against preformed biofilms of S. aureus strain ATCC-6538 and P. aeruginosa strain ATCC-15442: Strains cultured on appropriate agar plates (Columbia agar plate for S. aureus; MacConkey agar plate for P. aeruginosa) were transferred to liquid microbiological media and incubated for 24 hrs/37° C. under aerobic conditions. […] After this time, the microbial colonies were counted and the number of cells forming biofilm was assessed. […]

[2] = system: Aggregatibacter actinomycetemcomitans (Aa; wild-type rough strain D7S-1; serotype a); assay: Disc diffusion inhibition zone assay on Aa; type: cell-based
Source text: Since this BP-ciprofloxacin conjugate is novel and has not been tested in vivo, we performed an initial safety and efficacy study in an animal model of peri-implant osteomyelitis. This model is a unique in-house jawbone peri-implant osteomyelitis model that was developed specifically for translational value to study biofilm-mediated disease and host response in vivo (Freire, et al, Development of animal model for Aggregatibacter actinomycetemcomitans biofilm-mediated oral osteolytic infection: a preliminary study. J Periodontol 2011; 82:778-89). […] After biofilms are established on the implants in vitro, they are surgically transferred to the jawbone of each rat. Animals are anesthetized, the cheeks are retracted and a transmucosal osteotomy is performed so implants can be manually inserted into the osteotomy and secured. Two biofilm-inoculated implants are placed in each rat (n=12 rats and 24 implants) in the palatal bone bilaterally.
Next, inhibition zones were recorded using a ruler.
After biofilms were established on the implants in vitro, they were surgically transferred to the jawbone of each rat. For surgery, animals were anesthetized with 4% isoflurane inhalant initially followed by intraperitoneal injection of ketamine (80-90 mg/kg) plus xylazine (5-10 mg/kg). Then local anesthesia was given via infiltration injection of bupivicaine 0.25% at the surgical site. […]

In the case of `O=C(O)c1cn(C2CC2)c2cc(N3CCN(C(=O)Oc4ccc(CC(P(=O)(O)O)P(=O)(O)O)cc4)CC3)c(F)cc2c1=O` [Compound 6, 1-cyclopropyl-7-(4-((4-(2,2-diphosphonoethyl)phenoxy)carbonyl)piperazin-1-yl)-6-fluoro-4-oxo-1,4-dihydroquinoline-3-carboxylic acid], the “minimal biofilm inhibitory concentration (MBIC50)” value ([1]; polystyrene substrate (Example 1)) is reported as 15.6 to 31.2 µg/mL, the “minimal biofilm inhibitory concentration (MBIC50)” value ([1]; polystyrene substrate (Example 5)) is reported as 15.6 to 31.2 µg/mL and the MBIC90 ([1]; polystyrene substrate, tested range of concentrations) is reported as “no MBIC90 was observed for either pathogen”.
For `O=C(O)c1cn(C2CC2)c2cc(N3CCNCC3)c(F)cc2c1=O` [ciprofloxacin, reference compound], the “disc diffusion inhibition zone diameters” value [2] was greater than 40 mm.
